Where two headings read alike, the source gives them in different places.
System: HCV subgenomic replication
Assay: Cell based HCV replication assay (subgenomic replicon in Huh-7 cells, NS3 Cell-ELISA)
Conditions: activity ranges
How it was run: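 Huh-7 cells stably carrying the I377neo/NS3-3′/wt subgenomic replicon, seeded at 10^4 cells/well in DMEM/10% FCS and exposed to inhibitor for 96 h. NS3 expression was measured by Cell-ELISA (mAb 10E5/24, alkaline phosphatase, absorbance 405/620 nm), in duplicate. IC50 was fitted to the Hill equation, with background from parental Huh-7 cells.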

[1] = Table 5, various macrocycles, read-out: IC50* (nM), Inhibition of HCV subgenomic replication
[2] = Table 4, various macrocycles, read-out: IC50* (nM), Inhibition of HCV subgenomic replication
[3] = Table A, Huh-7 replicon cells, 96 hours, read-out: IC50 (nM), Inhibition of HCV subgenomic replication
[4] = Table 2, various macrocycles, read-out: IC50* (nM), Inhibition of HCV subgenomic replication

Cc1cccc2c1OCC1CCN(CCN(C)C)CCCN(C)S(=O)(=O)NC(=O)c3ccc4c(C5CCCCC5)c-2n(c4c3)C1 [Example 522, (7R)-14-cyclohexyl-22-[2-(dimethylamino)ethyl]-4,18-dimethyl-7,8-dihydro-6H-7,11-(ethanoiminopropanoiminothioiminomethano)indolo[1,2-e][1,5]benzoxazocin-15-one 17,17-dioxide]
IC50 [1]: < 25 nM

Cc1cccc2c1OC[C@@H]1CCCN(C)CCN(C)S(=O)(=O)NC(=O)c3ccc4c([C@H]5CCCC[C@@H]5F)c-2n(c4c3)C1 [Example 513, (7R)-14-[(1R,2S)-2-fluorocyclohexyl]-4,18,21-trimethyl-7,8-dihydro-6H-7,11-(propanoiminoethanoiminothioiminomethano)indolo[1,2-e][1,5]benzoxazocin-15-one 17,17-dioxide]
IC50 [1]: < 25 nM

C=CCc1cccc2c1OCC1Cn3c-2c(C2CCCCC2)c2ccc(cc23)C(=O)NS(=O)(=O)N(C)CCN(CC)CCN1C [Example 403, (7R)-4-allyl-14-cyclohexyl-21-ethyl-18,24-dimethyl-7,8-dihydro-6H-7,11-(epiminoethanoiminoethanoiminothioiminomethano)-indolo[1,2-e][1,5]benzoxazocin-15-one 17,17-dioxide]
IC50 [2]: 25 to 150 nM

CN1CCN(C)C2COc3ccccc3-c3c(C4CCCCC4)c4ccc(cc4n3C2)C(=O)NS(=O)(=O)N(C)CC1 [Compound A2, (7R)-14-cyclohexyl-18,21,24-trimethyl-7,8-dihydro-6H-7,11-(epiminoethanoiminoethanoiminothioiminomethano)indolo[1,2-e][1,5]benzoxazocin-15-one 17,17-dioxide]
IC50 [3]: < 25 nM

CCN1CCN(C)C2COc3ccccc3-c3c(C4CCCCC4)c4ccc(cc4n3C2)C(=O)NS(=O)(=O)N(C)CC1 [Compound A3, (7R)-14-cyclohexyl-21-ethyl-18,24-dimethyl-7,8-dihydro-6H-7,11-(epiminoethanoiminoethanoiminothioiminomethano)indolo[1,2-e][1,5]benzoxazocin-15-one 17,17-dioxide]
IC50 [3]: < 25 nM

CN1C2CCN(CC2)CCN(C)S(=O)(=O)NC(=O)c2ccc3c(C4CCCCC4)c4n(c3c2)C[C@@H]1COc1ccccc1-4 [Example 302, (3R)-31-cyclohexyl-2,22-dimethyl-5-oxa-21-thia-2,13,20,22,25-pentaazahexacyclo[23.2.2.1^3,13.1^12,15.1^14,18.0^6,11]dotriaconta-6,8,10,12(31),14(30),15,17-heptaen-19-one 21,21-dioxide]
IC50 (Hepatitis C virus, Huh-7, Table 3, various macrocycles, read-out: IC50* (nM), Inhibition of HCV subgenomic replication): < 25 nM

CCN1CCN(CCN(C)C)C2COc3ccccc3-c3c(C4CCCCC4)c4ccc(cc4n3C2)C(=O)NS(=O)(=O)N(C)CC1 [Example 217, (7R)-14-cyclohexyl-24-[2-(dimethylamino)ethyl]-21-ethyl-18-methyl-7,8-dihydro-6H-7,11-(epiminoethanoiminoethanoiminothioiminomethano)-indolo[1,2-e][1,5]benzoxazocin-15-one 17,17-dioxide]
IC50 [4]: < 25 nM

CN1CCN(CCOCc2ccccc2)CCN(C)S(=O)(=O)NC(=O)c2ccc3c(C4CCCCC4)c4n(c3c2)CC1COc1ccccc1-4 [Example 102, (7R)-21-[2-(benzyloxy)ethyl]-14-cyclohexyl-18,24-dimethyl-7,8-dihydro-6H-7,11-(epiminoethanoiminoethanoiminothioiminomethano)-indolo[1,2-e][1,5]benzoxazocin-15-one 17,17-dioxide]
IC50 (Table 1, 16 membered macrocycles, read-out: IC50* (nM), Inhibition of HCV subgenomic replication): < 25 nM

CN(C)CCN1CCC(C)(C)CCN(C)S(=O)(=O)NC(=O)c2ccc3c(C4CCCCC4)c4n(c3c2)CC1COc1ccccc1-4 [Compound A31, (7R)-14-cyclohexyl-24-[2-(dimethylamino)ethyl]-18,21,21-trimethyl-7,8-dihydro-6H-7,11-(epiminopentanoiminothioiminomethano)indolo[1,2-e][1,5]benzoxazocin-15-one 17,17-dioxide]
IC50 [3]: < 25 nM

CCN1CCN(CCN(C)C)C2COc3cc(F)ccc3-c3c(C4CCCCC4)c4ccc(cc4n3C2)C(=O)NS(=O)(=O)N(C)CC1 [Compound A12, (7R)-14-cyclohexyl-24-[2-(dimethylamino)ethyl]-21-ethyl-3-fluoro-18-methyl-7,8-dihydro-6H-7,11-(epiminoethanoiminoethanoiminothioiminomethano)-indolo[1,2-e][1,5]benzoxazocin-15-one 17,17-dioxide]
IC50 [3]: < 25 nM

CCN1CCN(C)C2COc3c(F)cccc3-c3c(C4CCCCC4)c4ccc(cc4n3C2)C(=O)NS(=O)(=O)N(C)CC1 [Example 404, (7R)-14-cyclohexyl-21-ethyl-4-fluoro-18,24-dimethyl-7,8-dihydro-6H-7,11-(epiminoethanoiminoethanoiminothioiminomethano)-indolo[1,2-e][1,5]benzoxazocin-15-one 17,17-dioxide]
IC50 [2]: < 25 nM

CCN1CCN(C)C2COc3c(OC)cccc3-c3c(C4CCCCC4)c4ccc(cc4n3C2)C(=O)NS(=O)(=O)N(C)CC1 [Compound A28, (7R)-14-cyclohexyl-21-ethyl-4-methoxy-18,24-dimethyl-7,8-dihydro-6H-7,11-(epiminoethanoiminoethanoiminothioiminomethano)indolo[1,2-e][1,5]benzoxazocin-15-one 17,17-dioxide]
IC50 [3]: < 25 nM

CN(C)CCN1CCOCCN(C)S(=O)(=O)NC(=O)c2ccc3c(C4CCCCC4)c4n(c3c2)CC1COc1ccccc1-4 [Example 402, (7R)-14-cyclohexyl-24-[2-(dimethylamino)ethyl]-18-methyl-7,8-dihydro-6H-7,11-(epiminoethanooxyethanoiminothioiminomethano)indolo[1,2-e][1,5]benzoxazocin-15-one 17,17-dioxide]
IC50 [2]: < 25 nM

CC(C)N1CCN(C)C2COc3ccccc3-c3c(C4CCCCC4)c4ccc(cc4n3C2)C(=O)NS(=O)(=O)N(C)CC1 [Compound A4, (7R)-14-cyclohexyl-21-isopropyl-18,24-dimethyl-7,8-dihydro-6H-7,11-(epiminoethanoiminoethanoiminothioiminomethano)indolo[1,2-e][1,5]benzoxazocin-15-one 17,17-dioxide]
IC50 [3]: < 25 nM

O=C1NS(=O)(=O)N2CCN(CCN3CC4(COc5ccccc5-c5c(C6CCCCC6)c6ccc1cc6n5C4)C3)CC2 [Compound A23, 31-cyclohexyl-8-oxa-24-thia-1,4,16,23,25-pentaazaheptacyclo[23.2.2.1^4,6.1^6,16.1^15,18.1^17,21.0^9,14]tritriaconta-9,11,13,15(31),17(30),18,20-heptaen-22-one 24,24-dioxide]
IC50 (Hepatitis C virus, Table A, Huh-7 replicon cells, 96 hours, read-out: IC50 (nM), Inhibition of HCV subgenomic replication): 25 to 150 nM

Cc1cccc2c1OCC1Cn3c-2c(C2CCCCC2)c2ccc(cc23)C(=O)NS(=O)(=O)N(C)CCN(C)CCN1C [Example 516, (7R)-14-cyclohexyl-4,18,21,24-tetramethyl-7,8-dihydro-6H-7,11-(epiminoethanoiminoethanoiminothioiminomethano)-indolo[1,2-e][1,5]benzoxazocin-15-one 17,17-dioxide]
IC50 [1]: < 25 nM

CCN1CCN(C)C2COc3ccc(F)cc3-c3c(C4CCCCC4)c4ccc(cc4n3C2)C(=O)NS(=O)(=O)N(C)CC1 [Example 205, (7R)-14-cyclohexyl-21-ethyl-2-fluoro-18,24-dimethyl-7,8-dihydro-6H-7,11-(epiminoethanoiminoethanoiminothioiminomethano)-indolo[1,2-e][1,5]benzoxazocin-15-one 17,17-dioxide]
IC50 [4]: < 25 nM

(5R)-31-cyclohexyl-4,24-dimethyl-7-oxa-23-thia-1,4,15,22,24-pentaazahexacyclo[23.2.2.1^5,15.1^14,17.1^16,20.0^8,13]dotriaconta-8,10,12,14(31),16(30),17,19-heptaen-21-one 23,23-dioxide [Example 305]
IC50 (Table 3, various macrocycles, read-out: IC50* (nM), Inhibition of HCV subgenomic replication): < 25 nM

CCCc1cccc2c1OCC1Cn3c-2c(C2CCCCC2)c2ccc(cc23)C(=O)NS(=O)(=O)N(C)CCN(C(C)C)CCN1C [Example 213, (7R)-14-cyclohexyl-21-isopropyl-18,24-dimethyl-4-propyl-7,8-dihydro-6H-7,11-(epiminoethanoiminoethanoiminothioiminomethano)-indolo[1,2-e][1,5]benzoxazocin-15-one 17,17-dioxide]
IC50 [4]: 25 to 150 nM

CN1CCN(C)[C@H]2COc3ccccc3-c3c(C4CCCCC4)c4ccc(cc4n3C2)C(=O)NS(=O)(=O)N(CC2CC2)CC1 [Compound A5, (7R)-14-cyclohexyl-18-(cyclopropylmethyl)-21,24-dimethyl-7,8-dihydro-6H-7,11-(epiminoethanoiminoethanoiminothioiminomethano)indolo[1,2-e][1,5]benzoxazocin-15-one 17,17-dioxide]
IC50 [3]: < 25 nM

COc1ccc2c(c1)OCC1CCN(C)CCCN(C)S(=O)(=O)NC(=O)c3ccc4c(C5CCCCC5F)c-2n(c4c3)C1 (single isomer, unassigned) [Compound A38, 14-[(1R,2S) or (1S,2R)-2-fluorocyclohexyl]-3-methoxy-18,22-dimethyl-7,8-dihydro-6H-7,11-(ethanoiminopropanoiminothioiminomethano)indolo[1,2-e][1,5]benzoxazocin-15-one 17,17-dioxide]
IC50 [3]: < 25 nM

COc1cccc2c1OCC1Cn3c-2c(C2CCCCC2)c2ccc(cc23)C(=O)NS(=O)(=O)N(C)CCNCCN1C [Compound A27, (7R)-14-cyclohexyl-4-methoxy-18,24-dimethyl-7,8-dihydro-6H-7,11-(epiminoethanoiminoethanoiminothioiminomethano)indolo[1,2-e][1,5]benzoxazocin-15-one 17,17-dioxide]
IC50 [3]: < 25 nM

— patent US7989438B2, “Therapeutic compounds” (Istituto di Ricerche di Biologia Molecolare P. Angeletti SpA, priority 2007, dated 2011)
